How the values were obtained:
Format in all cases: cell-based
[1] = system: CD44v3 in MDA-MB-231 cells; assay: Immunofluorescence, membrane CD44v3; conditions: MDA-MB-231, immunofluorescence/confocal, NGF
Description: (§1) The CD44v3- and CD44v6-containing isoforms expressing respectively exon 8 and 11(Fig. 1A) can interact with growth factor receptors. Using COS-7 cells with low CD44 and TrkA expression (Supplementary Fig. 1A-D), we differentially expressed TrkA and CD44s or a CD44 variant, either CD44v3 or CD44v6 (Fig. 1B, supplementary Fig. 2). […] Additionally, we evaluated the expression of TrkA and CD44v3 at the membrane level or in cells by immunofluorescence in MDA-MB-231 cells.
(§2) Supplementary file 13046_2022_2314_MOESM3_ESM.pdf: Additional file 3: Supplementary Figure 1. Validation of the ectopic expression of CD44 and/or TrkA in COS-7 cells. The expression of all CD44 isoforms (A), CD44 variant 3 (B), CD44 variant 6 (C) and TrkA ([…]; D) was evaluated by RT–qPCR (normalized using PUM-1). No expression of CD44, CD44 variants [3 or 6] or TrkA was detected in COS-7 cells (A-D) compared with that in cells transfected with the expression plasmid carrying each protein. […] Quantification of the PLA results was performed using ImageJ software (30 randomly chosen fields per condition of three different experiments). […] CD44v3 and CD44v6 levels at the plasma membrane were assessed by flow cytometry (A-D). The plasma membrane and total TrkA and CD44v3 levels were also quantified by confocal microscopy (E-H). […] The CD44v3/NGF interaction was evaluated using microscale thermophoresis (MST). […]

[2] = system: TrkA/CD44v6 complex in MDA-MB-231 cells; assay: PLA TrkA/CD44v6 complex formation in MDA-MB-231 cells; conditions: NGF 100 ng/ml; 30 fields per condition, three experiments
Experimental: Cells (10,000 cells per well) were grown on acid-washed eight-well glass slides (Thermo Scientific) in the appropriate medium supplemented with 10% FBS for 24 h. After NGF treatment, paraformaldehyde (PAF)-fixed cells were incubated with 4% bovine serum albumin (BSA) or 5% FBS (for 1 h at 20 °C), followed by overnight incubation with primary antibodies (rabbit anti-TrkA or rabbit anti-IgG + mouse anti-pan-CD44; mouse anti-CD44v3; mouse anti-CD44v6; mouse anti-IgG2a; mouse anti-IgG2b; or mouse anti-IgG1). PLA was performed following the manufacturer’s instructions in the assay kit (Duolink PLA; Sigma–Aldrich). To obtain the correct representation of the PLA signal for each condition, 30 fields per condition were observed using a fluorescence microscope (Eclipse TiU; Nikon, Japan). The PLA signals (red dots) were automatically quantified using ImageJ software (with an in-house-developed plug-in). […]
Fig. 3 CD44v3 mimetic peptide 4 blocks the TrkA-CD44 association in MDA-MB-231 breast cancer cells. TrkA/CD44v3 (A) and TrkA/CD44v6 (B) complex associations were detected by the proximity ligation assay (PLA) in MDA-MB-231 breast cancer cells. […] Quantification of the PLA results was performed by ImageJ software (30 randomly chosen fields per condition of three different experiments). […]

TrkA in MDA-MB-231 cells = assay: Immunofluorescence, membrane TrkA; conditions: MDA-MB-231, immunofluorescence/confocal, NGF; "same trend" = as CD44v3: increased until 15 min and then decreased
Description: as §1, §2

NGF: recombinant human β-NGF (Alomone Labs, Israel)
level of CD44v3 at the membrane (in words) [1]: increased at the membrane until 15 min of NGF treatment and then decreased | effect on TrkA/CD44v6 complex formation (PLA) in MDA-MB-231 cells [2]: did not induce TrkA/CD44v6 complex formation | level of TrkA at the membrane (in words) (TrkA in MDA-MB-231 cells): the membrane level of TrkA followed the same trend
